Experimental data from patent publication US12071596B2, “Metal working fluids biocide” (Dow Global Technologies LLC, priority 2021, dated 2024).

Tested on: mixed microbial inoculum
Assay: Microbial growth inhibition test (challenge test) in diluted metalworking fluid
Assay type: cell-based
Conditions: 0.91 wt. % amine in diluted metalworking fluid, 30° C.; for Challenge Test Results 2nd dose Day 14: 2nd dosing 0.5 ml mixed inoculum, read at Day 14; for Challenge Test Results 3rd dose Day 21: 3rd dosing 1 ml mixed inoculum, read at Day 21; for Challenge Test Results 4th dose Day 28: 4th dosing 1 ml mixed inoculum, read at Day 28; for Challenge Test Results 5th dose Day 35: 5th dosing 3 ml mixed inoculum, read at Day 35; for Challenge Test Results 1st dose Day 7: 50 g sample, 1st dosing 0.5 ml mixed inoculum, read at Day 7
Method: Test 1—Microbial Growth Inhibition Test
To test the novel disclosed microbial growth control agent the diluted metal working fluid shown in Table 1 is mixed with the various ether amines listed in Table 2. Firstly, using 250 mL glass beaker to prepare 100 g the basic diluted metalworking fluid with the recipe in Table 1 except amine ingredient, stirring for getting clear solution. Repeating the first step to get 8 basic diluted metalworking fluid solutions. Secondly, adding every kind of amine or amine combination from Table 2 as comparative example 1-2 and example 1-6. Thirdly, 50 g the comparative example 1-2 and example 1-6 into 8 petri dishes with a diameter of 10 cm and dosed with 0.5 ml of mixed microbial inoculum. Measuring the microbial growth in the petri dishes after 7 days and repeating to dose the mixed microbial inoculum and measuring them in 5 times. For the first and second dosing, 0.5 ml mixed inoculum is used; in third and fourth dosing, 1 ml mixed inoculum is used; and in the fifth dosing, 3 ml mixed inoculum is used The MWF microbial inoculum was prepared by adding 0.1 mL of each bacterial overnight broth culture and 1.0 mL of each yeast broth culture to the 10 mL of mold suspension and blending. The microbial strains used in this experiment are listed in Table 3 below (8 bacteria, 2 molds and 2 fungi). These strains were cultivated separately in nutrient broth and then blend them together. The mixed strains were then injected into each tested MWF and amine sample and mixed well.
50 grams of each of the MWF treated with amine samples (e.g., Examples 1-5 and Comparative Examples 1-2) were dosed with 0.5 ml of mixed microbial inoculum on Day 0 of this experiment. This inoculation introduces around […] colony forming units per milliliter of sample, (CFU/ml) of microorganisms.
The mixed inoculated samples where then incubated at 30° C. to determine the biocidal effect of the tested amines on the microbes. After seven days, the number of microorganisms surviving in the petri dish was observed and if the colony growth was less than 10, it was considered as PASS. After measuring the number of surviving microorganisms, another round of dosing with the mixed microbial inoculum was complete. The step of observation and subsequent dosing was done 5 times to challenge the microbial growth inhibition capabilities of the tested examples. For the first and second dosing, 0.5 ml mixed inoculum was used; in third and fourth dosing, 1 ml mixed inoculum was used; and in the fifth dosing, 3 ml mixed inoculum is used.

SMILES: COCC(C)N (centres unmarked) [Example 1, 1-methoxy-2-propanamine]
- Challenge Test Results 2nd dose Day 14: Pass (if the colony growth was less than 10, it was considered as PASS)
- Challenge Test Results 3rd dose Day 21: Pass (if the colony growth was less than 10, it was considered as PASS)
- Challenge Test Results 4th dose Day 28: Pass (if the colony growth was less than 10, it was considered as PASS)
- Challenge Test Results 5th dose Day 35: Pass (if the colony growth was less than 10, it was considered as PASS)
- Challenge Test Results 1st dose Day 7: Pass (if the colony growth was less than 10, it was considered as PASS)

SMILES: CCCCOCC(C)OCC(C)N (centres unmarked) [Example 5, 2-propanamine, 1-(2-butoxy-1-methylethoxy)-]
- Challenge Test Results 2nd dose Day 14: Pass (if the colony growth was less than 10, it was considered as PASS)
- Challenge Test Results 3rd dose Day 21: Pass (if the colony growth was less than 10, it was considered as PASS)
- Challenge Test Results 4th dose Day 28: Pass (if the colony growth was less than 10, it was considered as PASS)
- Challenge Test Results 5th dose Day 35: Pass (if the colony growth was less than 10, it was considered as PASS)
- Challenge Test Results 1st dose Day 7: Pass (if the colony growth was less than 10, it was considered as PASS)

SMILES: CCCOCC(C)OCC(C)N (centres unmarked) [Example 6, 1-(1-methyl-2-propoxyethoxy)-2-propanamine]
- Challenge Test Results 2nd dose Day 14: Pass (if the colony growth was less than 10, it was considered as PASS)
- Challenge Test Results 3rd dose Day 21: Pass (if the colony growth was less than 10, it was considered as PASS)
- Challenge Test Results 4th dose Day 28: Pass (if the colony growth was less than 10, it was considered as PASS)
- Challenge Test Results 5th dose Day 35: Pass (if the colony growth was less than 10, it was considered as PASS)
- Challenge Test Results 1st dose Day 7: Pass (if the colony growth was less than 10, it was considered as PASS)

SMILES: CCCOCC(C)OCC(C)OCC(C)N (centres unmarked) [Example 4, 1-[1-methyl-2-(1-methyl-2-propoxyethoxy)ethoxy]-2-propanamine]
- Challenge Test Results 2nd dose Day 14: Pass (if the colony growth was less than 10, it was considered as PASS)
- Challenge Test Results 3rd dose Day 21: Pass (if the colony growth was less than 10, it was considered as PASS)
- Challenge Test Results 4th dose Day 28: Pass (if the colony growth was less than 10, it was considered as PASS)
- Challenge Test Results 5th dose Day 35: Pass (if the colony growth was less than 10, it was considered as PASS)
- Challenge Test Results 1st dose Day 7: Pass (if the colony growth was less than 10, it was considered as PASS)

SMILES: CCCCOCC(C)N (centres unmarked) [Example 2, 1-butoxy-2-propanamine]
- Challenge Test Results 2nd dose Day 14: Pass (if the colony growth was less than 10, it was considered as PASS)
- Challenge Test Results 3rd dose Day 21: Pass (if the colony growth was less than 10, it was considered as PASS)
- Challenge Test Results 4th dose Day 28: Pass (if the colony growth was less than 10, it was considered as PASS)
- Challenge Test Results 5th dose Day 35: Pass (if the colony growth was less than 10, it was considered as PASS)
- Challenge Test Results 1st dose Day 7: Pass (if the colony growth was less than 10, it was considered as PASS)

SMILES: CC(C)(N)CO [compound 2, 2-amino-2-methyl-1-propanol, reference compound]
- Challenge Test Results 2nd dose Day 14: Pass (if the colony growth was less than 10, it was considered as PASS)
- Challenge Test Results 3rd dose Day 21: Pass (if the colony growth was less than 10, it was considered as PASS)
- Challenge Test Results 4th dose Day 28: Pass (if the colony growth was less than 10, it was considered as PASS)
- Challenge Test Results 5th dose Day 35: Pass (if the colony growth was less than 10, it was considered as PASS)
- Challenge Test Results 1st dose Day 7: Pass (if the colony growth was less than 10, it was considered as PASS)

SMILES: CCCCOCCN [Example 3, 2-butoxy-ethanamine]
- Challenge Test Results 2nd dose Day 14: Pass (if the colony growth was less than 10, it was considered as PASS)
- Challenge Test Results 3rd dose Day 21: Pass (if the colony growth was less than 10, it was considered as PASS)
- Challenge Test Results 4th dose Day 28: Pass (if the colony growth was less than 10, it was considered as PASS)
- Challenge Test Results 5th dose Day 35: Pass (if the colony growth was less than 10, it was considered as PASS)
- Challenge Test Results 1st dose Day 7: Pass (if the colony growth was less than 10, it was considered as PASS)
